Measurements from ChEMBL document CHEMBL3632538, “Novel 5-carboxy-8-HQ based histone demethylase JMJD2A inhibitors: introduction of an additional carboxyl group at the C-2 position of quinoline” (Eur J Med Chem, 2015).
Values after ≈ are worked out from the molar mass of the structure shown. Active and inactive are the calls of the source. No cut-off for these calls is given here.

Key:
[1] = molecular target: T1, Lysine-specific demethylase 4A (Homo sapiens, UniProt O75164); assay: Inhibition of recombinant human JMJD2A using biotinylated histone H3 as substrate by AlphaScreen assay
T1 sequence (O75164 whole entry): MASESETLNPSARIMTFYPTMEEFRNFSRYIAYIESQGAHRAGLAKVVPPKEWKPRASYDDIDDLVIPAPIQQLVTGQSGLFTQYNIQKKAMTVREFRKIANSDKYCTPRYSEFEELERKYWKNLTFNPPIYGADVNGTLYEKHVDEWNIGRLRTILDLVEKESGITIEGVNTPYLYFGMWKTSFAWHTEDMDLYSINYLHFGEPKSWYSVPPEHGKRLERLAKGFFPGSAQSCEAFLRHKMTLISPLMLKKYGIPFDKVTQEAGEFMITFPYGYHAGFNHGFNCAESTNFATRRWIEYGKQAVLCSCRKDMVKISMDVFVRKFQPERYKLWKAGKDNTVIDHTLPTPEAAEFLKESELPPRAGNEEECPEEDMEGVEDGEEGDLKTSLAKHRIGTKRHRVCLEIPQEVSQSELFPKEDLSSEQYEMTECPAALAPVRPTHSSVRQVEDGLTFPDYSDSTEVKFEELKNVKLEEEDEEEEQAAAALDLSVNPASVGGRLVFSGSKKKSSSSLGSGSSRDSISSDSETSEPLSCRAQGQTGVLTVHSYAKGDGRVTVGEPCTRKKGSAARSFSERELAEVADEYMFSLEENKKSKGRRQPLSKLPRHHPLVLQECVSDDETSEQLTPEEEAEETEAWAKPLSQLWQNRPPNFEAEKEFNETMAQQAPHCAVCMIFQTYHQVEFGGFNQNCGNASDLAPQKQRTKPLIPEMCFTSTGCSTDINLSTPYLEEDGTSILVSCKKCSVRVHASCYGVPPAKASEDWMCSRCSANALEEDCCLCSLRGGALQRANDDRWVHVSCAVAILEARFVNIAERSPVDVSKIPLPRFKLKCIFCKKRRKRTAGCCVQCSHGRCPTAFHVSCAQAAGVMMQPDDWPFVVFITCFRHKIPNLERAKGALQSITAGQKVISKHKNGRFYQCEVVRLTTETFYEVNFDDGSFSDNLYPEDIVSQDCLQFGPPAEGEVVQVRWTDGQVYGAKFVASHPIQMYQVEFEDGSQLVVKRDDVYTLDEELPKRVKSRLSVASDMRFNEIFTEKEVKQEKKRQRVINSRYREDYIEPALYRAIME

[2] = molecular target: Egl nine homolog 1 (Homo sapiens) (UniProt Q9GZT9); assay: Displacement of F-HIF1alpha from PHD2 (unknown origin) at 50 uM by fluorescence polarization assay relative to control
[3] = system: MCF7; assay: Cytotoxicity against human MCF7 cells assessed as cell viability after 48 hrs by MTT assay; format: functional, cell-based; conditions: MCF7, 48 h
[4] = system: HCT-116; assay: Cytotoxicity against human HCT116 cells assessed as cell viability after 48 hrs by MTT assay; format: functional, cell-based; conditions: HCT-116, 48 h
[5] = system: A549; assay: Cytotoxicity against human A549 cells assessed as cell viability after 48 hrs by MTT assay; format: functional, cell-based; conditions: A549, 48 h
[6] = Partition co-efficient, log D of the compound at pH 7.4; format: physicochemical; conditions: buffer
[7] = Permeability of the compound at 10 mM after 4 hrs by PAMPA; format: physicochemical; conditions: read-out: permeability
[8] = Intrinsic aqueous solubility of the compound after 24 hrs by UV spectrophotometric analysis; format: physicochemical; conditions: read-out: Intrinsic_solubility
[9] = molecular target: T2, Lysine-specific demethylase 4A (Homo sapiens) (UniProt O75164); assay: Inhibition of JMJD2A in human HCT116 cells assessed as induction of H3K9me2 hypermethylation at 5 to 10 uM by Western blot analysis; format: cell-based; conditions: HCT-116
T2 sequence (whole entry): T1 sequence (O75164 whole entry)

[10] = molecular target: T2, Lysine-specific demethylase 4A (Homo sapiens); assay: Inhibition of JMJD2A in human HCT116 cells assessed as induction of H3K9me3 hypermethylation at 5 to 10 uM by Western blot analysis; format: cell-based; conditions: HCT-116

Sequence of Egl nine homolog 1 (Homo sapiens) (Q9GZT9 2-426 limits assumed): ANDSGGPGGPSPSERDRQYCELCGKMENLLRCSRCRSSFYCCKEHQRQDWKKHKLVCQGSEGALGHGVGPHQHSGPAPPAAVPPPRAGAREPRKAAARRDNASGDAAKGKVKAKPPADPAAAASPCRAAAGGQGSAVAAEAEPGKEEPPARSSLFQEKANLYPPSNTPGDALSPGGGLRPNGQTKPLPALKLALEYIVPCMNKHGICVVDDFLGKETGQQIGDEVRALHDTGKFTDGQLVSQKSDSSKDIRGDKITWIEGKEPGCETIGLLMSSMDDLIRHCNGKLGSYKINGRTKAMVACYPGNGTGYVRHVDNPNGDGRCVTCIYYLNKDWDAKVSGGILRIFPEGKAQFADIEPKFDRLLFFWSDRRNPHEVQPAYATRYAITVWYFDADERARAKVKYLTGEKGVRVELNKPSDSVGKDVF

| Structure (SMILES) | IC50 [1] | inhibition [2] | logD [6] | Papp at 4 h, 10000 µM [7] | solubility at 24 h [8] | inhibition [9] | inhibition [10] | IC50 [3] | IC50 [4] | IC50 [5] |
| --- | --- | --- | --- | --- | --- | --- | --- | --- | --- | --- |
| O=C(O)c1ccc(O)c2ncccc12 |  | 66.3% | -1.9 | 20 nm/s | 1200 µM (≈ 227 µg/mL) |  |  | 66.4 µM | 28.1 µM | 48.2 µM |
| CN(C)c1ccc(NC(=O)c2ccc3c(C(=O)O)ccc(O)c3n2)cc1 | > 100 µM |  |  |  |  |  |  |  |  |  |
| O=C(Nc1ccc(F)cc1)c1ccc2c(C(=O)O)ccc(O)c2n1 | > 100 µM |  |  |  |  |  |  |  |  |  |
| O=C(NCc1ccccc1)c1ccc2c(C(=O)O)ccc(O)c2n1 | > 100 µM |  |  |  |  |  |  |  |  |  |
| COc1ccc(NC(=O)c2ccc3c(C(=O)O)ccc(O)c3n2)cc1 | > 100 µM |  |  |  |  |  |  |  |  |  |
| Cc1ccc(NC(=O)c2ccc3c(C(=O)O)ccc(O)c3n2)cc1 | > 100 µM |  |  |  |  |  |  |  |  |  |
| O=C(NC1CCCCC1)c1ccc2c(C(=O)O)ccc(O)c2n1 | > 100 µM |  |  |  |  |  |  |  |  |  |
| Cc1cccc(NC(=O)c2ccc3c(C(=O)O)ccc(O)c3n2)c1 | > 100 µM |  |  |  |  |  |  |  |  |  |
| Cc1ccccc1NC(=O)c1ccc2c(C(=O)O)ccc(O)c2n1 | > 100 µM |  | 3 | 39 nm/s | 700 µM (≈ 226 µg/mL) |  |  | > 100 µM | 59.6 µM | 94.6 µM |
| COc1cccc(NC(=O)c2ccc3c(C(=O)O)ccc(O)c3n2)c1 | > 100 µM |  |  |  |  |  |  |  |  |  |
| O=C(Nc1ccc(OC(F)(F)F)cc1)c1ccc2c(C(=O)O)ccc(O)c2n1 | > 100 µM |  |  |  |  |  |  |  |  |  |

Now from value to molecule, other results behind:

| IC50 [1] | inhibition [2] | logD [6] | Papp at 4 h, 10000 µM [7] | solubility at 24 h [8] | inhibition [9] | inhibition [10] | Structure (SMILES) | IC50 [3] | IC50 [4] | IC50 [5] |
| --- | --- | --- | --- | --- | --- | --- | --- | --- | --- | --- |
| > 100 µM |  |  |  |  |  |  | O=C(Nc1ccccc1)c1ccc2c(C(=O)O)ccc(O)c2n1 |  |  |  |
| 5.1 µM | 9.1% |  |  |  |  |  | O=C(O)c1ccc(O)c2nc(C(=O)N3CCOCC3)ccc12 | > 100 µM | > 100 µM | > 100 µM |
| 82 µM |  |  |  |  |  |  | O=C(NCCCN1CCOCC1)c1ccc2c(C(=O)O)ccc(O)c2n1 | > 100 µM | > 100 µM | > 100 µM |
| > 100 µM |  |  |  |  |  |  | O=C(Nc1cccc2ccccc12)c1ccc2c(C(=O)O)ccc(O)c2n1 |  |  |  |
| > 100 µM |  |  |  |  |  |  | O=C(Nc1ccccc1F)c1ccc2c(C(=O)O)ccc(O)c2n1 |  |  |  |
| 24 µM | 20.6% | 2.9 | 36 nm/s | 900 µM (≈ 338 µg/mL) |  |  | O=C(NCCc1c[nH]c2ccccc12)c1ccc2c(C(=O)O)ccc(O)c2n1 | > 100 µM | 68.3 µM | > 100 µM |
| 6.2 µM | 23.5% |  |  |  |  |  | Cc1ccc(NC(=O)c2ccc3c(C(=O)O)ccc(O)c3n2)nc1 | > 100 µM | 72.7 µM | 22.2 µM |
| 1.6 µM | 18.7% | 0.3 | 33 nm/s | 4900 µM (≈ 1550 µg/mL) |  |  | CN1CCN(C(=O)c2ccc3c(C(=O)O)ccc(O)c3n2)CC1 | 95 µM | 94.9 µM | > 100 µM |
| 2.8 µM | 24% | 1.2 | 29 nm/s | 1200 µM (≈ 371 µg/mL) |  |  | O=C(Nc1ccccn1)c1ccc2c(C(=O)O)ccc(O)c2n1 | 43.4 µM | 67 µM | 72.2 µM |
| 1.8 µM | 23.9% | 1.5 | 23 nm/s | 3600 µM (≈ 1040 µg/mL) |  |  | CCN(CC)C(=O)c1ccc2c(C(=O)O)ccc(O)c2n1 | > 100 µM | 11.1 µM | > 100 µM |
| 3.7 µM | 17.6% | 0.4 | 30 nm/s | 3800 µM (≈ 989 µg/mL) |  |  | CN(C)C(=O)c1ccc2c(C(=O)O)ccc(O)c2n1 | > 100 µM | > 100 µM | > 100 µM |
| 19 µM | 25% | 2.7 | 67 nm/s | 1300 µM (≈ 453 µg/mL) | Active | Active | O=C(Nc1nc2ccccc2[nH]1)c1ccc2c(C(=O)O)ccc(O)c2n1 | 27.6 µM | 1.5 µM | 21.7 µM |
